# Measured values published in patent US10556914B2, “Substituted isoxazolopyridazinones and isothiazolopyridazinones and methods of use” (AbbVie Inc., priority 2015, dated 2020).
# Target: GABA-B receptor (Rattus norvegicus (Rat), UniProt O88871+Q9Z0U4)
# Experiment: [35S]GTPgS Binding Assay (rat brain cortex membranes, native receptor)
# Format: biochemical
# Conditions: rat cortical membranes; in the presence of 1 μM GABA (EC25); basal binding 0%, maximal binding (1 mM GABA) 100%
# Description: Preparation of Rat Brain Membranes for Native Receptor Assays
# Membranes from rat brain cortex were prepared as described in detail by Olpe et al. and stored at concentrations of 1.66 mg/mL protein at −80° C. until required. (Olpe, H.-R, et al. Eur J Pharmacol 1990; 187: 27-38).
# [^35S]GTPgS Binding Assay
# The samples were incubated at room temperature for 60 minutes on a shaker. The incubation was stopped by rapid vacuum filtration over glass-fiber filter plates (UniFilter-96 well, GF/B membrane plates, PerkinElmer) using a 96-well plate harvester (TOMTEK© Harvester). The UniFilter plate was washed five times with ice-cold wash buffer (50 mM Tris-HCl buffer, pH 7.7, 10 mM MgCl2, and 100 mM NaCl. After filtration the plate was dried for 90 minutes at 55° C. The plates were closed on the bottom with black sealing membranes, and liquid scintillation cocktail (35 μL, Betaplate Scint, PerkinElmer) was added to each well. After sealing the top of the plate, an additional incubation step of 90 minutes at room temperature followed before measuring the plate. The amount of membrane-bound [^35S]GTPgS was measured using a 96-well plate reader (Microbeta®, PerkinElmer). Nonspecific binding was measured in the presence of unlabeled 10 μM of GTPgS (Millipore) and without GABA. Basal binding was measured in the absence of 1 μM GABA, and maximal binding was measured in the presence of GABA using 1 mM GABA concentrations.
# Data analysis. The concentration-response curves of compounds of the present disclosure in the presence of EC25 of GABA-B receptor agonist were generated using the GraphPad Prism® program (GraphPad Software, San Diego, Calif.). Data was normalized using basal binding as 0% and maximal binding as 100%. The curves were fitted by nonlinear regression allowing determination of EC50 values from sigmoidal dose-response curves. Each curve was performed using triplicate sample per date point and 10 concentrations.
# GABA-B receptor, sequence (Q9Z0U4 17-960): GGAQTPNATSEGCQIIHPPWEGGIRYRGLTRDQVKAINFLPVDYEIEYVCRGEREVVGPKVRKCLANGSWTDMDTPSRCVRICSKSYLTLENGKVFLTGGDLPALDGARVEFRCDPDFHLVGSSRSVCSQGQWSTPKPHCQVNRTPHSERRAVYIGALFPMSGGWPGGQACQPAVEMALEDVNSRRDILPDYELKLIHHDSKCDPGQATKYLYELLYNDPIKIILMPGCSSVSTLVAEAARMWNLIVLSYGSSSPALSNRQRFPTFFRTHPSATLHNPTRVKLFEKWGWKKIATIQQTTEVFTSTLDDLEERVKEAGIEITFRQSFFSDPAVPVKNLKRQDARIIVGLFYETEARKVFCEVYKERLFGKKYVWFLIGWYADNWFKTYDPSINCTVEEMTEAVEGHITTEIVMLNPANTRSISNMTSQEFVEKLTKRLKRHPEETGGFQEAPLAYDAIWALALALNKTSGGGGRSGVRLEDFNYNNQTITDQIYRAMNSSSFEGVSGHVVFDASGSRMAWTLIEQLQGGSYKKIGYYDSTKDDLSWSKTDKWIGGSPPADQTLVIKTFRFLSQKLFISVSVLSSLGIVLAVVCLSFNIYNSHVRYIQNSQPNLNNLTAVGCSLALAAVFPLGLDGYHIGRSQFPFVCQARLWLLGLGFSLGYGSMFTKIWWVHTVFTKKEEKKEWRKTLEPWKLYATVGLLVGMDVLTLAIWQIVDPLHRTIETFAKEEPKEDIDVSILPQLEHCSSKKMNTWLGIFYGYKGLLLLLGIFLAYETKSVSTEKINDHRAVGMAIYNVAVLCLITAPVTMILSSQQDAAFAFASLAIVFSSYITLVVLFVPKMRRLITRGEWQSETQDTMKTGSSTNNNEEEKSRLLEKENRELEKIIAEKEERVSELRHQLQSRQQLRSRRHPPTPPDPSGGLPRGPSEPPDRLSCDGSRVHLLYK
# GABA-B receptor, sequence (O88871 41-940): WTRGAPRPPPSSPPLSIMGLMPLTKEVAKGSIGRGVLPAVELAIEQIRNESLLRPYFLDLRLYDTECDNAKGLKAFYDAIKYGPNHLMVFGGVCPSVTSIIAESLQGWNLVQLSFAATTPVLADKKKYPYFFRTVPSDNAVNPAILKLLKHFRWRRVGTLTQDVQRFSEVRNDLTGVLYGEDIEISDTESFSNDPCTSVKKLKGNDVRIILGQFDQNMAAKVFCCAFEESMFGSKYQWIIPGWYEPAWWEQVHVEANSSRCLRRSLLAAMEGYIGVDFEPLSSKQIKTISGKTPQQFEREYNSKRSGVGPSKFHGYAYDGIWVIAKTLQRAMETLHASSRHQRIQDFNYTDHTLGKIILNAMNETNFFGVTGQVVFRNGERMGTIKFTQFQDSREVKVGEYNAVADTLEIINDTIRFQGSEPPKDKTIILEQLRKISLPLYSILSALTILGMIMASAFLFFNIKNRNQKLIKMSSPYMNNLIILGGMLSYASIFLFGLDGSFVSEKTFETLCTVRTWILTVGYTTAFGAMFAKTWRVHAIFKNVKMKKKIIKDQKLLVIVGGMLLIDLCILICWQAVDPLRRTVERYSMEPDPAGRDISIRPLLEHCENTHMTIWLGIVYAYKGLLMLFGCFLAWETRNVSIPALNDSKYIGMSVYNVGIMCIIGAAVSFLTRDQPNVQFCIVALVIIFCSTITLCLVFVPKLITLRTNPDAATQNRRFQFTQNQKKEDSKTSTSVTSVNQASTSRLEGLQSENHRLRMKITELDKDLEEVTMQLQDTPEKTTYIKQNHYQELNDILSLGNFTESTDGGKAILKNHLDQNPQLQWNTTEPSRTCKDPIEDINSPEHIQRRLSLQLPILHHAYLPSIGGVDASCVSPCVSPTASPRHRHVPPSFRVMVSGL
row,EC50,Molecule
1,0.562 µM,"CC(=O)Nc1ccc(C)c(-c2nn([C@H](C)c3ccc(C(F)(F)F)cc3)c(=O)c3c(C)noc23)c1 [Example 35, N-[4-methyl-3-(3-methyl-4-oxo-5-{(1R)-1-[4-(trifluoromethyl)phenyl]ethyl}-4,5-dihydro[1,2]oxazolo[4,5-d]pyridazin-7-yl)phenyl]acetamide]"
2,0.846 µM,"COc1ccc(OC)c(-c2nn(Cc3ccc(Cl)cc3)c(=O)c3c(C)noc23)c1 [Example 102, 5-(4-chlorobenzyl)-7-(2,5-dimethoxyphenyl)-3-methyl[1,2]oxazolo[4,5-d]pyridazin-4(5H)-one]"
3,0.048 µM,"COc1ccc(OC)c(-c2nn([C@@H](C)c3ccc(Cl)cc3)c(=O)c3c(C4CC4)noc23)c1 [Example 68, 5-[(1S)-1-(4-chlorophenyl)ethyl]-3-cyclopropyl-7-(2,5-dimethoxyphenyl)[1,2]oxazolo[4,5-d]pyridazin-4(5H)-one]"
4,0.935 µM,"CC(=O)Nc1cccc(-c2nn(Cc3ccc(Cl)cc3)c(=O)c3c(C)noc23)c1 [Example 70, N-{3-[5-(4-chlorobenzyl)-3-methyl-4-oxo-4,5-dihydro[1,2]oxazolo[4,5-d]pyridazin-7-yl]phenyl}acetamide]"
5,0.283 µM,"CC(=O)Nc1ccc(OC(F)(F)F)c(-c2nn(C(C)c3ccc(Cl)cc3)c(=O)c3c(C)noc23)c1 (stereo not shown) [Example 49, N-[3-{5-[1-(4-chlorophenyl)ethyl]-3-methyl-4-oxo-4,5-dihydro[1,2]oxazolo[4,5-d]pyridazin-7-yl}-4-(trifluoromethoxy)phenyl]acetamide]"
6,0.051 µM,"COc1ccc(NC(C)=O)cc1-c1nn([C@@H](C)c2ccc(Cl)cc2)c(=O)c2c(C3CC3)noc12 [Example 1, N-(3-{5-[(1S)-1-(4-chlorophenyl)ethyl]-3-cyclopropyl-4-oxo-4,5-dihydro[1,2]oxazolo[4,5-d]pyridazin-7-yl}-4-methoxyphenyl)acetamide]"
7,0.105 µM,"COc1ccc(NC(C)=O)cc1-c1nn(C(C)c2ccc(Cl)cc2)c(=O)c2c(C)noc12 (stereo not shown) [Example 39, N-(3-{5-[1-(4-chlorophenyl)ethy]-3-methyl-4-oxo-4,5-dihydro[1,2]oxazolo[4,5-d]pyridazin-7-yl}-4-methoxyphenyl)acetamide]"
8,3.71 µM,"COc1ccccc1-c1nn(Cc2ccc(OC)c(C(F)(F)F)c2)c(=O)c2c(C)noc12 [Example 101, 7-(2-methoxyphenyl)-5-[4-methoxy-3-(trifluoromethyl)benzyl]-3-methyl[1,2]oxazolo[4,5-d]pyridazin-4(5H)-one]"
9,9.64 µM,"Cc1noc2c(-c3ccc(F)c(F)c3)nn(Cc3ccc(Cl)cc3)c(=O)c12 [Example 42, 5-(4-chlorobenzyl)-7-(3,4-difluorophenyl)-3-methyl[1,2]oxazolo[4,5-d]pyridazin-4(5H)-one]"
10,0.043 µM,"COc1ccc(NC(C)=O)cc1-c1nn([C@@H](C)c2ccc(Cl)cc2)c(=O)c2c(C)noc12 [Example 117, N-(3-{5-[(1S)-1-(4-chlorophenyl)ethyl]-3-methyl-4-oxo-4,5-dihydro[1,2]oxazolo[4,5-d]pyridazin-7-yl}-4-methoxyphenyl)acetamide]"
11,1.56 µM,"COc1ccc(-c2nn(Cc3ccc(C(F)(F)F)cc3)c(=O)c3c(C)noc23)c(OC)c1 [Example 127, 7-(2,4-dimethoxyphenyl)-3-methyl-5-[4-(trifluoromethyl)benzyl][1,2]oxazolo[4,5-d]pyridazin-4(5H)-one]"
12,2.13 µM,"COc1ccccc1-c1nn(Cc2ccc(Cl)cc2)c(=O)c2c(C)noc12 [Example 67, 5-(4-chlorobenzyl)-7-(2-methoxyphenyl)-3-methyl[1,2]oxazolo[4,5-d]pyridazin-4(5H)-one]"
13,3.8 µM,"Cc1noc2c(-c3ccccc3)nn(Cc3ccc(Cl)cc3)c(=O)c12 [Example 122, 5-(4-chlorobenzyl)-3-methyl-7-phenyl[1,2]oxazolo[4,5-d]pyridazin-4(5H)-one]"
14,4.12 µM,"CCn1nccc1-c1nn(C(C)c2ccc(Cl)cc2)c(=O)c2c(C)noc12 (stereo not shown) [Example 115, 5-[1-(4-chlorophenyl)ethyl]-7-(1-ethyl-1H-pyrazol-5-yl)-3-methyl[1,2]oxazolo[4,5-d]pyridazin-4(5H)-one]"
15,1.96 µM,"Cc1noc2c(-c3cc(Cl)ccc3N)nn(C(C)c3ccc(Cl)cc3)c(=O)c12 (stereo not shown) [Example 6, 7-(2-amino-5-chlorophenyl)-5-[1-(4-chlorophenyl)ethyl]-3-methyl[1,2]oxazolo[4,5-d]pyridazin-4(5H)-one]"
16,0.347 µM,"Cc1noc2c(-c3ccc4cc[nH]c4c3)nn(C(C)c3ccc(Cl)cc3)c(=O)c12 (stereo not shown) [Example 12, 5-[1-(4-chlorophenyl)ethyl]-7-(1H-indol-6-yl)-3-methyl[1,2]oxazolo[4,5-d]pyridazin-4(5H)-one]"
17,0.023 µM,"CNC(=O)c1ccc(OC)c(-c2nn([C@@H](C)c3ccc(Cl)cc3)c(=O)c3c(C)noc23)c1 [Example 82, 3-{5-[(1S)-1-(4-chlorophenyl)ethyl]-3-methyl-4-oxo-4,5-dihydro[1,2]oxazolo[4,5-d]pyridazin-7-yl}-4-methoxy-N-methylbenzamide]"
18,2.62 µM,"CC(=O)Nc1cccc(-c2nn(Cc3cc(C(F)(F)F)ccc3F)c(=O)c3c(C)noc23)c1 [Example 85, N-(3-{5-[2-fluoro-5-(trifluoromethyl)benzyl]-3-methyl-4-oxo-4,5-dihydro[1,2]oxazolo[4,5-d]pyridazin-7-yl}phenyl)acetamide]"
19,3.47 µM,"Cc1noc2c(-c3ccc(F)cc3)nn(Cc3ccc(Cl)c(C(F)(F)F)c3)c(=O)c12 [Example 28, 5-[4-chloro-3-(trifluoromethyl)benzyl]-7-(4-fluorophenyl)-3-methyl[1,2]oxazolo[4,5-d]pyridazin-4(5H)-one]"
20,3.84 µM,"Cc1noc2c(-c3cncnc3)nn(C(C)c3ccc(Cl)cc3)c(=O)c12 (stereo not shown) [Example 113, 5-[1-(4-chlorophenyl)ethyl]-3-methyl-7-(pyrimidin-5-yl)[1,2]oxazolo[4,5-d]pyridazin-4(5H)-one]"
21,> 10 µM,"CCCc1noc2c(-c3cc(OC)ccc3OC)nn(Cc3ccc(Cl)cc3)c(=O)c12 [Example 52, 5-(4-chlorobenzyl)-7-(2,5-dimethoxyphenyl)-3-propyl[1,2]oxazolo[4,5-d]pyridazin-4(5H)-one]"
22,0.389 µM,"CC(=O)Nc1ccc(C)c(-c2nn(C(C)c3ccc(Cl)cc3)c(=O)c3c(C)noc23)c1 (stereo not shown) [Example 18, N-(3-{5-[1-(4-chlorophenyl)ethyl]-3-methyl-4-oxo-4,5-dihydro[1,2]oxazolo[4,5-d]pyridazin-7-yl}-4-methylphenyl)acetamide]"
23,3.41 µM,"7-(4-fluorophenyl)-3-methyl-5-(pyridin-4-ylmethyl)[1,2]oxazolo[4,5-d]pyridazin-4(5H)-one [Example 74]"
24,2.76 µM,"Cc1noc2c(-c3cccnc3N)nn(C(C)c3ccc(Cl)cc3)c(=O)c12 (stereo not shown) [Example 86, 7-(2-aminopyridin-3-yl)-5-[1-(4-chlorophenyl)ethyl]-3-methyl[1,2]oxazolo[4,5-d]pyridazin-4(5H)-one]"
25,1.58 µM,"Cc1noc2c(-c3ccc(F)cc3)nn(Cc3ccc(C(F)(F)F)cc3)c(=O)c12 [Example 19, 7-(4-fluorophenyl)-3-methyl-5-[4-(trifluoromethyl)benzyl][1,2]oxazolo[4,5-d]pyridazin-4(5H)-one]"
